In patent publication US10722516B2, “Use of landiolol hydrochloride in the long-term treatment of tachyarrhythmias” (AOP Orphan Pharmaceuticals AG, priority 2013, dated 2020):
Counter-ions that a name gives are not always drawn.

Test system: healthy volunteers
Assay: 24 h long-term infusion study, AOP LDLL600 against esmolol: heart rate
Format: in vivo, human
Experimental: A single centre prospective, randomized, double blind, crossover, pharmacokinetic, safety and tolerability study to compare long-term infusion administration of AOP LDLL600 against esmolol in healthy volunteers was performed.
Landiolol hydrochloride lyophilized (LDLL600) comprises 600 mg landiolol hydrochloride, 600 mg mannitol, pH 6.5. The primary packing of LDLL600 is 50 ml vial, the reconstitution volume is 50 ml and the final product concentration is 12 mg/mL landiolol HCl.
12 subjects were administered AOP LDLL600 or Esmolol (Brevibloc, 2500 mg/250 ml) in 1:1 ratio in double-blind, randomized, cross-over setting. PK, systemic cardiovascular and local tolerability and safety of the 24 h-long term infusions of three dose levels of both IMPs during each treatment period were assessed.
Landiolol was infused over 24 h in a dose of 10 μg/KG/min (2 hrs), followed by 20 μg/KG/min (2 hrs), followed by 40 μg/KG/min for 20 hrs.
Dosing algorithm was body weight divided by 20, 10 and 5 in ml/h giving 10, 20 and 40 μg/KG/min at a concentration of 12 mg/ml. No severe adverse drug reactions, mild local reactions, 1 severe local reaction (Esmolol High Dose).
Landiolol was infused over 24 h in a dose of 10, 20 and 40 μg/KG/min, i.e. 10 μg/KG/min landiolol were administered for 2 hrs, followed by 2 hrs administration of 20 μg/KG/min and further followed by 20 hrs administration of 40 μg/KG/min.
Post-infusion follow up measurements were performed immediately after 20 hrs administration study, i.e. 2, 4 min etc. after stop of landiolol administration.

[1] = FU Predose (end of 20 h HD, infusion stop)
[2] = FU post-infusion, 20 h 2 min (2 min after infusion stop)
[3] = FU post-infusion, 20 h 4 min (4 min after infusion stop)
[4] = FU post-infusion, 20 h 6 min (6 min after infusion stop)
[5] = FU post-infusion, 20 h 8 min (8 min after infusion stop)
[6] = FU post-infusion, 20 h 12 min (12 min after infusion stop)
[7] = FU post-infusion, 20 h 16 min (16 min after infusion stop)
[8] = FU post-infusion, 20 h 20 min (20 min after infusion stop)
[9] = FU post-infusion, 20 h 30 min (30 min after infusion stop)
[10] = FU post-infusion, 21 h (1 h after infusion stop)
[11] = FU post-infusion, 22 h (2 h after infusion stop)
[12] = FU post-infusion, 24 h (4 h after infusion stop)
[13] = FU post-infusion, 26 h (6 h after infusion stop)
[14] = HD infusion (landiolol 40, esmolol 200 μg/kg/min, after LD and MD), 2 min
[15] = HD infusion (landiolol 40, esmolol 200 μg/kg/min, after LD and MD), 3 min
[16] = HD infusion (landiolol 40, esmolol 200 μg/kg/min, after LD and MD), 4 min
[17] = HD infusion (landiolol 40, esmolol 200 μg/kg/min, after LD and MD), 6 min
[18] = HD infusion (landiolol 40, esmolol 200 μg/kg/min, after LD and MD), 8 min
[19] = HD infusion (landiolol 40, esmolol 200 μg/kg/min, after LD and MD), 12 min
[20] = HD infusion (landiolol 40, esmolol 200 μg/kg/min, after LD and MD), 16 min
[21] = HD infusion (landiolol 40, esmolol 200 μg/kg/min, after LD and MD), 20 min
[22] = HD infusion (landiolol 40, esmolol 200 μg/kg/min, after LD and MD), 30 min
[23] = HD infusion (landiolol 40, esmolol 200 μg/kg/min, after LD and MD), 60 min
[24] = HD infusion (landiolol 40, esmolol 200 μg/kg/min, after LD and MD), 90 min
[25] = HD infusion (landiolol 40, esmolol 200 μg/kg/min, after LD and MD), 2 h
[26] = HD infusion (landiolol 40, esmolol 200 μg/kg/min, after LD and MD), 4 h
[27] = HD infusion (landiolol 40, esmolol 200 μg/kg/min, after LD and MD), 8 h
[28] = HD infusion (landiolol 40, esmolol 200 μg/kg/min, after LD and MD), 12 h
[29] = HD infusion (landiolol 40, esmolol 200 μg/kg/min, after LD and MD), 16 h
[30] = HD infusion (landiolol 40, esmolol 200 μg/kg/min, after LD and MD), 20 h (end)
[31] = LD infusion (landiolol 10, esmolol 50 μg/kg/min), 2 min
[32] = LD infusion (landiolol 10, esmolol 50 μg/kg/min), 3 min

CC1(C)OC[C@@H](COC(=O)CCc2ccc(OC[C@@H](O)CNCCNC(=O)N3CCOCC3)cc2)O1 [Landiolol, (−)-[(S)-2,2-dimethyl-1,3-dioxolan-4-yl]methyl 3-[4-[(S)-2-hydroxy-3-(2-morpholinocarbonylamino)ethylamino]propoxy]phenylpropionate monohydrochloride]
change of heart rate from predose, Mean (SD) [1]: −5.7 (11.51) beats per minute
heart rate, Mean (SD) [1]: 61.7 (5.87) beats per minute
change of heart rate from predose, Mean (SD) [2]: −6.8 (11.98) beats per minute
heart rate, Mean (SD) [2]: 60.6 (5.50) beats per minute
change of heart rate from predose, Mean (SD) [3]: −6.5 (9.88) beats per minute
heart rate, Mean (SD) [3]: 60.8 (4.04) beats per minute
change of heart rate from predose, Mean (SD) [4]: −5.9 (9.79) beats per minute
heart rate, Mean (SD) [4]: 61.4 (5.43) beats per minute
change of heart rate from predose, Mean (SD) [5]: −5.7 (10.63) beats per minute
heart rate, Mean (SD) [5]: 61.7 (5.33) beats per minute
change of heart rate from predose, Mean (SD) [6]: −3.8 (10.00) beats per minute
heart rate, Mean (SD) [6]: 63.5 (6.11) beats per minute
change of heart rate from predose, Mean (SD) [7]: −0.3 (14.69) beats per minute
heart rate, Mean (SD) [7]: 67.0 (8.92) beats per minute
change of heart rate from predose, Mean (SD) [8]: −0.3 (11.89) beats per minute
heart rate, Mean (SD) [8]: 67.0 (8.29) beats per minute
change of heart rate from predose, Mean (SD) [9]: 2.7 (9.47) beats per minute
heart rate, Mean (SD) [9]: 70.0 (5.70) beats per minute
change of heart rate from predose, Mean (SD) [10]: 1.8 (12.70) beats per minute
heart rate, Mean (SD) [10]: 69.2 (9.64) beats per minute
change of heart rate from predose, Mean (SD) [11]: −0.5 (9.97) beats per minute
heart rate, Mean (SD) [11]: 66.8 (8.43) beats per minute
change of heart rate from predose, Mean (SD) [12]: 4.2 (10.34) beats per minute
heart rate, Mean (SD) [12]: 71.5 (4.96) beats per minute
change of heart rate from predose, Mean (SD) [13]: 5.3 (9.97) beats per minute
heart rate, Mean (SD) [13]: 72.6 (5.26) beats per minute
change of heart rate from predose, Mean (SD) (HD Predose (end of 2 h MD)): −11.3 (9.41) beats per minute
heart rate, Mean (SD) (HD Predose (end of 2 h MD)): 56.1 (7.38) beats per minute
change of heart rate from predose, Mean (SD) [14]: −9.6 (8.69) beats per minute
heart rate, Mean (SD) [14]: 57.8 (5.43) beats per minute
change of heart rate from predose, Mean (SD) [15]: −9.9 (9.92) beats per minute
heart rate, Mean (SD) [15]: 57.4 (6.40) beats per minute
change of heart rate from predose, Mean (SD) [16]: −12.6 (9.52) beats per minute
heart rate, Mean (SD) [16]: 54.8 (5.45) beats per minute
change of heart rate from predose, Mean (SD) [17]: −9.7 (11.01) beats per minute
heart rate, Mean (SD) [17]: 57.7 (7.38) beats per minute
change of heart rate from predose, Mean (SD) [18]: −10.7 (10.76) beats per minute
heart rate, Mean (SD) [18]: 56.7 (6.62) beats per minute
change of heart rate from predose, Mean (SD) [19]: −9.4 (12.21) beats per minute
heart rate, Mean (SD) [19]: 57.9 (8.13) beats per minute
change of heart rate from predose, Mean (SD) [20]: −11.3 (10.71) beats per minute
heart rate, Mean (SD) [20]: 56.0 (6.80) beats per minute
change of heart rate from predose, Mean (SD) [21]: −11.4 (9.74) beats per minute
heart rate, Mean (SD) [21]: 55.9 (6.35) beats per minute
change of heart rate from predose, Mean (SD) [22]: −10.5 (10.30) beats per minute
heart rate, Mean (SD) [22]: 56.8 (7.23) beats per minute
change of heart rate from predose, Mean (SD) [23]: −5.4 (13.14) beats per minute
heart rate, Mean (SD) [23]: 61.9 (8.93) beats per minute
change of heart rate from predose, Mean (SD) [24]: −4.8 (11.24) beats per minute
heart rate, Mean (SD) [24]: 62.5 (5.95) beats per minute
change of heart rate from predose, Mean (SD) [25]: −3.0 (9.59) beats per minute
heart rate, Mean (SD) [25]: 64.3 (5.25) beats per minute
change of heart rate from predose, Mean (SD) [26]: −6.9 (11.24) beats per minute
heart rate, Mean (SD) [26]: 60.4 (5.25) beats per minute
change of heart rate from predose, Mean (SD) [27]: −9.8 (10.39) beats per minute
heart rate, Mean (SD) [27]: 57.5 (5.96) beats per minute
change of heart rate from predose, Mean (SD) [28]: −10.8 (10.17) beats per minute
heart rate, Mean (SD) [28]: 56.5 (6.08) beats per minute
change of heart rate from predose, Mean (SD) [29]: −13.8 (10.01) beats per minute
heart rate, Mean (SD) [29]: 53.6 (4.89) beats per minute
change of heart rate from predose, Mean (SD) [30]: −5.7 (11.51) beats per minute
heart rate, Mean (SD) [30]: 61.7 (5.87) beats per minute
change of heart rate from predose, Mean (SD) [31]: −1.8 (7.77) beats per minute
heart rate, Mean (SD) [31]: 65.6 (5.09) beats per minute
change of heart rate from predose, Mean (SD) [32]: −2.5 (7.48) beats per minute
heart rate, Mean (SD) [32]: 64.8 (6.82) beats per minute
change of heart rate from predose, Mean (SD) (LD infusion (landiolol 10, esmolol 50 μg/kg/min), 4 min): −2.8 (6.38) beats per minute
